Results published in patent US4281009A, “Hydantoin derivatives” (Nippon Zoki Pharmaceutical Co., Ltd., priority 1978, dated 1981).

Legend:
[1] = system: normal mice and SART stress mice; test: Analgesic effect, tail pressure method (Randall-Selitto's device); type: in vivo, mice (ddY-strain male); conditions: for change in vivo at 100 mg/kg / change in vivo at 200 mg/kg: Mus musculus; for change in vivo at 200 mg/kg: intraperitoneal 200 mg/kg; for Analgesic effect: intraperitoneal 50 mg/kg
Protocol: 5.1 Tail pressure method:
Randall-Selitto's device for determining analgesic effect by pressure stimulation was used. […]. The compounds of the present invention or other comparative drugs were given thereto and analgesic effect was determined. The effect was judged by measuring pressure applied 60 minutes after the intraperitoneal administration of the compounds of the present invention. The pressure thus measured was divided by a pressure before the administration. The value thus obtained was compared with that of a control group (to which 10 ml./Kg of 0.5% sodium salt of carboxymethylcellulose or 0.5% Tween 80 was given). When the compounds of the present invention were given perorally and other comparative drugs were given, an average of the pressure at 30, 60, 90 and 120 minutes after the administration was employed for evaluating the effect.

[2] = system: normal mice and SART stress mice; test: Analgesic effect, D'Amour-Smith method; type: in vivo, mice (ddY-strain male); conditions: Mus musculus; for responders at 200 mg/kg: intraperitoneal 200 mg/kg
Protocol: 5.3. D'Amour-Smith method:
Groups each comprising 10 ddY-strain male normal mice and SART stress mice to which SART stress had been applied for 4 days were used. The root of the tail of the mouse to which black ink was applied was irradiated with infrared rays for up to 15 seconds. Time required till escape response was observed was measured. The effect was shown by the ratio of the mice in which an average value of the response time at 30, 60, 90 and 120 minutes after the administration of the compounds of the present invention or other comparative drugs was prolonged to at least 2 times as long as the time before the administration.

[3] = Acute toxicity test (LD50, Litchfield-Wilcoxon), mice; conditions: mouse, in vivo, ip, intraperitoneal
Protocol: (§1) Toxicity tests were carried out by intraperitoneal administration of the compound of the present invention to groups each comprising 10 ICR-strain mice and SD-strain rats. LD50 was calculated by the Litchfield-Wilcoxon method based on the number of death 72 hours after the administration.

[4] = Acute toxicity test (LD50, Litchfield-Wilcoxon), rats; conditions: rat, in vivo, ip, intraperitoneal
Protocol: as §1

[5] = system: ddY-strain male mice; test: Effect of prolongation of sleeping time (hexobarbital); type: in vivo; conditions: for change in vivo at 100 mg/kg / change in vivo at 300 mg/kg: Mus musculus, ip; for change in vivo at 100 mg/kg: 100 mg/kg intraperitoneal; for change in vivo at 300 mg/kg: 300 mg/kg intraperitoneal; for Effect of prolongation of sleeping time: 50 mg/kg intraperitoneal
Protocol: 7. Effect of prolongation of sleeping time:
Groups of mice each comprising 10 ddY-strain male mice were used. Sodium salt of hexobarbital was given intraperitoneally. Thereafter, the period of time in which righting reflex disappeared was measured. The effect was evaluated on the basis of prolongation of time of disappearance of righting reflex by the intraperitoneal administration of the compounds of the present invention as compared with control mice.

[6] = system: normal mice and SART stress mice; test: Analgesic effect, acetic acid writhing method; type: in vivo; conditions: Mus musculus, sc, 100 mg/Kg subcutaneously
Protocol: 5.2. Acetic acid writhing method: 0.1 ml./10 g of isotonic sodium chloride solution containing 0.7% acetic acid was given intraperitoneally to groups of mice each comprising 5 normal mice and 5 SART stress mice to which SART stress had been applied for 8 days. Writhing syndromes number appeared for 15 minutes after the administration was measured. The effect was evaluated by giving 100 mg/Kg of the compounds of the present invention or DPH subcutaneously and comparing the writhing syndromes number of the mice with that of control mice.

[7] = ip, 1 h, SART stress mice, intraperitoneal 100 mg/kg, 60 minutes
[8] = ip, 1 h, normal mice, intraperitoneal 100 mg/kg, 60 minutes
[9] = ip, 1 h, SART stress mice, 60 minutes
[10] = ip, 1 h, normal mice, 60 minutes

Row | Structure (SMILES) | LD50 at 72 h ([3]; female) [mg/kg] | LD50 at 72 h ([3]; male) [mg/kg] | LD50 at 72 h ([4]; female) [mg/kg] | LD50 at 72 h ([4]; male) [mg/kg] | change in vivo at 100 mg/kg [5] [%] | change in vivo at 300 mg/kg [5] [%] | further results
1 | Cc1c(N(C)C)c(=O)n(-c2ccccc2)n1C [Aminopyrine, reference compound] | – | – | – | – | – | – | change in vivo at 100 mg/kg ([1]; po, SART stress mice, peroral 100 mg/kg, average of 30, 60, 90 and 120 minutes): 58.9%; change in vivo at 100 mg/kg ([1]; po, normal mice, peroral 100 mg/kg, average of 30, 60, 90 and 120 minutes): 43.5%; responders at 100 mg/kg ([2]; po, SART stress mice, peroral 100 mg/kg): 50%; responders at 100 mg/kg ([2]; po, normal mice, peroral 100 mg/kg): 10%
2 | O=C1NC(=O)C(c2ccccc2)(c2ccccc2O)N1 (centres unmarked) [Compound 6, 5-(2-Hydroxyphenyl)-5-phenylhydantoin] | > 5000 | > 5000 | > 5000 | > 5000 | 30.6 | 33.7 | change in vivo at 100 mg/kg [1, 7]: 62.7%; change in vivo at 100 mg/kg [1, 8]: 38.1%
3 | O=C1NC(=O)C(c2cccc(O)c2)(c2cccc(O)c2)N1 [Compound 8, 5,5-Bis(3-hydroxyphenyl)hydantoin] | 1270 | 1350 | 1660 | 1800 | 16.9 | – | change in vivo at 100 mg/kg [1, 7]: 54.7%; change in vivo at 100 mg/kg [1, 8]: 22.9%
4 | CCCOc1ccccc1C1(c2ccccc2OCCC)NC(=O)NC1=O [Compound 9, 5,5-Bis(2-propoxyphenyl)hydantoin] | > 5000 | > 5000 | > 5000 | > 5000 | – | 39 | change in vivo at 200 mg/kg [1, 9]: 74.4%; change in vivo at 200 mg/kg [1, 10]: 21.3%; Effect of prolongation of sleeping time [5]: 10.5%
5 | CCCOc1ccc(C2(c3ccc(OCCC)cc3)NC(=O)NC2=O)cc1 [Compound 10, 5,5-Bis(4-propoxyphenyl)hydantoin] | 3460 | 3600 | 3800 to 4000 | 4000 | – | – | Effect of prolongation of sleeping time [5]: 17.0%
6 | COc1ccc(C2(c3ccc(O)cc3)NC(=O)NC2=O)cc1 (centres unmarked) [Compound 11, 5-(4-Hydroxyphenyl)-5-(4-methoxyphenyl)hydantoin] | 3000 | > 3000 | > 5000 | > 5000 | – | – | –
7 | O=C1NC(=O)C(c2ccccc2OCc2ccccc2)(c2ccccc2OCc2ccccc2)N1 [Compound 12, 5,5-Bis(2-benzyloxyphenyl)hydantoin] | > 5000 | > 5000 | > 5000 | > 5000 | – | – | –
8 | Cc1ccc(C2(c3ccc(C)cc3)NC(=O)NC2=O)cc1 [Compound 13, 5,5-Bis(4-methylphenyl)hydantoin] | > 5000 | > 5000 | > 5000 | > 5000 | – | 14.1 | –
9 | O=C1NC(=O)C(c2ccc(O)cc2)(c2ccc(O)c(O)c2)N1 (centres unmarked) [Compound 14, 5-(3,4-Dihydroxyphenyl)-5-(4-hydroxyphenyl)hydantoin] | 1200 | 1280 | 1480 | 1500 | 20.2 | – | change in vivo at 100 mg/kg [1, 7]: 102%; change in vivo at 100 mg/kg [1, 8]: 42.6%; Analgesic effect ([1]; SART stress mice, 60 minutes): 78.3%; Analgesic effect ([1]; normal mice, 60 minutes): 35.2%; inhibition in vivo at 100 mg/kg ([6]; SART stress mice): 36.2%; inhibition in vivo at 100 mg/kg ([6]; normal mice): 5%; responders at 100 mg/kg ([2]; ip, SART stress mice, intraperitoneal 100 mg/kg): 60%; responders at 100 mg/kg ([2]; ip, normal mice, intraperitoneal 100 mg/kg): 30%
10 | COc1ccc(C2(c3ccc(OC)cc3OC)NC(=O)NC2=O)cc1 (centres unmarked) [Compound 15, 5-(2,4-Dimethoxyphenyl)-5-(4-methoxyphenyl)hydantoin] | > 5000 | > 5000 | > 5000 | > 5000 | 15.4 | 23.9 | –
11 | COc1ccc(C2(c3ccc(OC)c(OC)c3)NC(=O)NC2=O)cc1 (centres unmarked) [Compound 16, 5-(3,4-Dimethoxyphenyl)-5-(4-methoxyphenyl)hydantoin] | > 5000 | > 5000 | > 5000 | > 5000 | – | 20.8 | –
12 | O=C1NC(=O)C(c2ccc(O)c(O)c2)(c2ccc(O)c(O)c2)N1 [Compound 17, 5,5-Bis(3,4-dihydroxyphenyl)hydantoin] | 1800 | 1500 to 2000 | 2220 | 2400 | – | – | –
13 | COc1ccc(C2(c3ccc(OC)cc3OC)NC(=O)NC2=O)c(OC)c1 [Compound 18, 5,5-Bis(2,4-Dimethoxyphenyl)hydantoin] | > 5000 | > 5000 | > 5000 | > 5000 | – | – | –
14 | COc1ccc(C2(c3ccc(OC)c(OC)c3)NC(=O)NC2=O)cc1OC [Compound 19, 5,5-Bis(3,4-dimethoxyphenyl)hydantoin] | > 5000 | > 5000 | > 5000 | > 5000 | 10 | – | –
15 | O=C1NC(=O)C(c2ccc(O)c(CO)c2)(c2ccc(O)c(CO)c2)N1 [Compound 20, 5,5-Bis(4-hydroxy-3-hydroxymethylphenyl)hydantoin] | 2980 | > 3000 | 4090 | 4310 | – | – | –
16 | COc1ccc(C2(c3ccc(OC)c(CO)c3)NC(=O)NC2=O)cc1CO [Compound 21, 5,5-Bis(3-hydroxymethyl-4-methoxyphenyl)hydantoin] | > 5000 | > 5000 | > 5000 | > 5000 | 25.1 | – | –
17 | COc1cc(C2(c3ccc(OC)c(OC)c3OC)NC(=O)NC2=O)cc(OC)c1OC (centres unmarked) [Compound 22, 5-(2,3,4-Trimethoxyphenyl)-5-(3,4,5-trimethoxyphenyl)hydantoin] | > 5000 | > 5000 | > 5000 | > 5000 | 13.1 | – | –
18 | COc1cc(C2(c3cc(OC)c(OC)c(OC)c3)NC(=O)NC2=O)cc(OC)c1OC [Compound 23, 5,5-Bis(3,4,5-trimethoxyphenyl)hydantoin] | > 5000 | > 5000 | > 5000 | > 5000 | 19.9 | 22.6 | change in vivo at 100 mg/kg [1, 7]: 66%; change in vivo at 100 mg/kg [1, 8]: 38.1%; responders at 200 mg/kg ([2]; ip, SART stress mice): 40%; responders at 200 mg/kg ([2]; ip, normal mice): 20%
19 | CCC1(c2ccccc2O)NC(=O)NC1=O (centres unmarked) [Compound 25, 5-Ethyl-5-(2-hydroxyphenyl)hydantoin] | 1040 | 1230 | 1480 | 1600 | – | 55.4 | change in vivo at 200 mg/kg [1, 9]: 49%; change in vivo at 200 mg/kg [1, 10]: 35.5%; inhibition in vivo at 100 mg/kg ([6]; SART stress mice): 19.8%; inhibition in vivo at 100 mg/kg ([6]; normal mice): 1.9%
20 | O=C1NC(=O)C(c2ccccc2O)(c2ccccc2O)N1 [Compound 29, 5,5-Bis(2-hydroxyphenyl)hydantoin] | 1600 | 1600 to 1800 | 1900 | 1980 | – | – | –
21 | O=C1NC(=O)C(c2ccc(O)cc2)(c2ccc(O)cc2O)N1 (centres unmarked) [Compound 31, 5-(2,4-Dihydroxyphenyl)-5-(4-hydroxyphenyl)hydantoin] | 1200 | 1220 | 1510 | 1540 | 19.1 | – | –
22 | O=C1NC(=O)C(c2ccc(O)cc2O)(c2ccc(O)cc2O)N1 [Compound 34, 5,5-Bis(2,4-dihydroxyphenyl)hydantoin] | 1200 | > 1000 | 2000 to 3000 | 2000 to 3000 | – | – | –
